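Results reflect a 48-hour exposure of cells in 96-well plates to compound at five concentrations. TGI: total growth inhibition.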
Key:
Assay in all cases: NCI tumour cell line growth inhibition, 48 h
DMS 114 small cell lung = tested on: DMS 114 small cell lung
DMS 273 small cell lung = tested on: DMS 273 small cell lung
HCT-116 colon = tested on: HCT-116 colon
KM20L2 colon = tested on: KM20L2 colon
SN12C renal = tested on: SN12C renal
SNB-78 CNS = tested on: SNB-78 CNS
TK-10 renal = tested on: TK-10 renal
RXF 393 renal = tested on: RXF 393 renal

Molecule `O=C1CCCCCCCCCCC1CN1CCCCC1` (stereo unspecified) has a TGI (DMS 114 small cell lung) greater than 100 µM, a TGI (DMS 273 small cell lung) greater than 100 µM and a TGI (HCT-116 colon) greater than 100 µM. For the same molecule, the TGI (KM20L2 colon) was greater than 100 µM, the TGI (SN12C renal) was greater than 100 µM and the TGI (SNB-78 CNS) was greater than 100 µM. The TGI (TK-10 renal) was greater than 100 µM.

Work on `CC(C)(C)C1CCC2c3c([nH]c4ccccc34)C3C(=O)N(c4ccccc4)C(=O)C3C2C1` (stereo unspecified) yielded a TGI (DMS 114 small cell lung) of 20.7 µM, a TGI (DMS 273 small cell lung) of 15 µM and a TGI (RXF 393 renal) of 14.4 µM. It also gave a TGI (SN12C renal) of 17.4 µM, a TGI (SNB-78 CNS) of 19 µM and a TGI (TK-10 renal) of 12.5 µM.

Molecule `CC(C)(C)C(=O)OC12/C(=N/O)CCCCCC1c1ccccc12` (stereo unspecified) has a TGI (DMS 114 small cell lung) of 35.4 µM, a TGI (DMS 273 small cell lung) of 34.3 µM and a TGI (HCT-116 colon) of 27.5 µM. It also gave a TGI (KM20L2 colon) of 36.5 µM, a TGI (RXF 393 renal) of 33.9 µM and a TGI (SN12C renal) of 33.6 µM. The TGI (SNB-78 CNS) was 46.6 µM and the TGI (TK-10 renal) was 30.1 µM.

With `CC(C)C1=CC23CCC4C(C)(C(=O)O)CCCC4(C)C2CC1C1C(=O)N(c2ccccc2)C(=O)C13` (stereo unspecified) the TGI (DMS 114 small cell lung) was greater than 100 µM, the TGI (DMS 273 small cell lung) was greater than 100 µM and the TGI (HCT-116 colon) was greater than 100 µM. For the same molecule, the TGI (KM20L2 colon) was greater than 100 µM, the TGI (RXF 393 renal) was 76.1 µM and the TGI (SN12C renal) was greater than 100 µM. The TGI (TK-10 renal) was greater than 100 µM.

For `CCOC(=O)C(C)(C)Oc1ccc(/C=C/C(=O)c2ccc(Cl)cc2)cc1`, the TGI (DMS 114 small cell lung) was 36.8 µM, the TGI (DMS 273 small cell lung) was 34.6 µM and the TGI (HCT-116 colon) was 31.5 µM. The TGI (KM20L2 colon) was 33.7 µM, the TGI (RXF 393 renal) was 30.5 µM and the TGI (SN12C renal) was 36 µM. It also gave a TGI (TK-10 renal) greater than 100 µM.

In the case of `Cc1c(C(=O)/C=C/c2ccc(N(C)C)cc2)c(=O)n(-c2ccccc2)n1C`, the TGI (DMS 114 small cell lung) is reported as greater than 100 µM, the TGI (DMS 273 small cell lung) is reported as greater than 100 µM and the TGI (HCT-116 colon) is reported as greater than 100 µM. The TGI (KM20L2 colon) was greater than 100 µM, the TGI (RXF 393 renal) was greater than 100 µM and the TGI (SN12C renal) was greater than 100 µM. The TGI (SNB-78 CNS) was greater than 100 µM and the TGI (TK-10 renal) was greater than 100 µM.

In the case of `CCOC(=N)CC(=O)c1ccccc1`, the TGI (DMS 114 small cell lung) is reported as greater than 100 µM, the TGI (DMS 273 small cell lung) is reported as greater than 100 µM and the TGI (HCT-116 colon) is reported as greater than 100 µM. It also gave a TGI (KM20L2 colon) greater than 100 µM, a TGI (RXF 393 renal) greater than 100 µM and a TGI (SN12C renal) greater than 100 µM. For the same molecule, the TGI (SNB-78 CNS) was greater than 100 µM and the TGI (TK-10 renal) was greater than 100 µM.

Work on `CC/C(CC(=O)CCC(=O)Nc1ccccc1[N+](=O)[O-])=N/NC(=O)C[n+]1ccccc1` yielded a TGI (DMS 273 small cell lung) greater than 100 µM, a TGI (HCT-116 colon) greater than 100 µM and a TGI (KM20L2 colon) greater than 100 µM. It also gave a TGI (RXF 393 renal) greater than 100 µM, a TGI (SN12C renal) greater than 100 µM and a TGI (SNB-78 CNS) greater than 100 µM. The TGI (TK-10 renal) was greater than 100 µM.

`O=[N+]([O-])CCc1cccc([N+](=O)[O-])c1` showed a TGI (DMS 114 small cell lung) greater than 100 µM, a TGI (DMS 273 small cell lung) greater than 100 µM and a TGI (HCT-116 colon) greater than 100 µM. For the same molecule, the TGI (KM20L2 colon) was greater than 100 µM, the TGI (RXF 393 renal) was greater than 100 µM and the TGI (SN12C renal) was greater than 100 µM. For the same molecule, the TGI (SNB-78 CNS) was greater than 100 µM and the TGI (TK-10 renal) was greater than 100 µM.

In the case of `Cc1cc(Cl)ccc1NC(=O)C(=O)C(C(=O)c1ccc2ccccc2c1)C1OC(=O)c2ccccc21` (stereo unspecified), the TGI (DMS 114 small cell lung) is reported as 23.7 µM, the TGI (DMS 273 small cell lung) is reported as 37.1 µM and the TGI (HCT-116 colon) is reported as 21.7 µM. It also gave a TGI (KM20L2 colon) of 61.7 µM, a TGI (RXF 393 renal) of 9.53 µM and a TGI (SN12C renal) of 37.4 µM. For the same molecule, the TGI (SNB-78 CNS) was 49.9 µM.

`CSc1n[n+]2c(s1)SCCC2` gave a TGI (DMS 114 small cell lung) greater than 100 µM, a TGI (DMS 273 small cell lung) greater than 100 µM and a TGI (HCT-116 colon) greater than 100 µM. It also gave a TGI (RXF 393 renal) greater than 100 µM, a TGI (SN12C renal) greater than 100 µM and a TGI (SNB-78 CNS) greater than 100 µM. It also gave a TGI (TK-10 renal) greater than 100 µM.

Molecule `CN(C)c1nc(=Nc2cccc(Cl)c2)ss1` has a TGI (DMS 114 small cell lung) of 25.8 µM, a TGI (DMS 273 small cell lung) of 29.9 µM and a TGI (HCT-116 colon) of 24.2 µM. It also gave a TGI (KM20L2 colon) of 35.5 µM, a TGI (RXF 393 renal) of 31.7 µM and a TGI (SN12C renal) of 25.4 µM. The TGI (SNB-78 CNS) was 34 µM and the TGI (TK-10 renal) was greater than 100 µM.

Work on `FC(F)(F)C1(Br)C(c2ccccc2)=C1c1ccccc1` yielded a TGI (DMS 114 small cell lung) of 31.4 µM, a TGI (DMS 273 small cell lung) of 36.3 µM and a TGI (HCT-116 colon) of 20.2 µM. For the same molecule, the TGI (KM20L2 colon) was 36.3 µM, the TGI (RXF 393 renal) was 31.7 µM and the TGI (SN12C renal) was 28.3 µM. The TGI (SNB-78 CNS) was 96.6 µM and the TGI (TK-10 renal) was 48.6 µM.

Reference: PubChem BioAssay (NCI)
